Values joined by “and” are separate entries in the source; they are usually repeats but may differ in a detail not shown here. Equal values may be shown once. Starred links: 1 amine or outer side, 2 acyl side, 3 side chain; linkers in the order of their positions; H or OH if unused. Non-standard residues stand in square brackets, D forms with d. Residues, ends and D or L forms follow the SMILES beside them. ξ: configuration not given here. Suc = O=C(CCC(=O)[*:2])[*:1]; Nphe = O=C(O)CNCc1ccccc1; ξF = NC(Cc1ccccc1)C(=O)O; Ava = NCCCCC(=O)O; GABA = NCCCC(=O)O; βAla = NCCC(=O)O
Tests used:
[1] = biological target: T1, butyrylcholinesterase (BuChE) (Equus caballus, UniProt P81908); assay: biochemical; details: BuChE from equine serum, substrate butyrylthiocholine, 30 min pre-incubation, mean ± SEM of triplicate independent experiments
T1 construct: from Electrophorus electricus and equine serum; from tissue; host or cells: equine serum

[2] = biological target: acetylcholinesterase (AChE) (Electrophorus electricus, UniProt O42275); assay: biochemical; details: for IC50: AChE from Electrophorus electricus, substrate acetylthiocholine, 30 min pre-incubation, mean ± SEM of triplicate independent experiments; for Selectivity: AChE versus BuChE (values fit IC50 BuChE / IC50 AChE)
[3] = biological target: AChE (Electrophorus electricus, UniProt O42275); assay: Kinetic study of AChE inhibition (Michaelis-Menten, Lineweaver-Burk); format: biochemical; details: Lineweaver-Burk plots, variation in Km and Vmax
Protocol: For this purpose, the rate of enzyme activity was measured at eight different concentrations of substrate ATC.
The assays were carried out in a total volume of 200 μL per well containing AChE from Electrophorus electricus (0.20 unit/mL) in PBS, the synthesized compound in DMSO, PBS at IC50, 2× IC50 concentration, and substrate solution. The general procedure was as follows: AChE and the synthesized compounds 7a to IC50 and twice concentrations in PBS were mixed and incubated at rt for 30 min. After incubation, substrate from 3.8 × 10^−3–0.48 mM was added into the mixture. The reaction was recorded for 10 min measuring the absorbance at 405 nm using a Microtiter plate reader (Multiskan EX, Thermo). Data were plotted using GraphPad Prism v4.03 software (GraphPad Software Inc., San Diego, CA, USA) to obtain the Michaelis–Menten constant (Km) and maximal velocity (Vmax) values. Km values were expressed in μM and Vmax as mol/min/mg protein and correspond to the mean ± SD of three independent assays in triplicate.
Figure 1 The Lineweaver–Burk plot of AChE (0.02 U) with an acetylthiocholine substrate in the absence and presence of inhibitor 7a.

Sequence of acetylcholinesterase (AChE) (O42275 24-633): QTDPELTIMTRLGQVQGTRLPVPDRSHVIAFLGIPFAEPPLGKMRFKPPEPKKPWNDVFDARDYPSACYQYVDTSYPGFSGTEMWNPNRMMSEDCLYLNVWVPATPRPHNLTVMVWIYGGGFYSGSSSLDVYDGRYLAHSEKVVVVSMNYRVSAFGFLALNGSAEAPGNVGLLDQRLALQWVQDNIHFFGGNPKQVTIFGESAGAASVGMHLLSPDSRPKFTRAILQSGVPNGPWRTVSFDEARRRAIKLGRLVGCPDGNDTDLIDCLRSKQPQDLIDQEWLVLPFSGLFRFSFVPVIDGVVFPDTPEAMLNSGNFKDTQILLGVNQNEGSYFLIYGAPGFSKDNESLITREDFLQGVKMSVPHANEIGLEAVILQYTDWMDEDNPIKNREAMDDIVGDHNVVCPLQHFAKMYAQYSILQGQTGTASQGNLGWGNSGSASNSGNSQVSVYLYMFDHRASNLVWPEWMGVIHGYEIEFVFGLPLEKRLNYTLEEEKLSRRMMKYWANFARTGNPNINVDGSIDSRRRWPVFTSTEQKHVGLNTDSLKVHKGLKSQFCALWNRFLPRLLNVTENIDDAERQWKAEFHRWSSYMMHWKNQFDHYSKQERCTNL
T1 sequence (P81908 whole entry): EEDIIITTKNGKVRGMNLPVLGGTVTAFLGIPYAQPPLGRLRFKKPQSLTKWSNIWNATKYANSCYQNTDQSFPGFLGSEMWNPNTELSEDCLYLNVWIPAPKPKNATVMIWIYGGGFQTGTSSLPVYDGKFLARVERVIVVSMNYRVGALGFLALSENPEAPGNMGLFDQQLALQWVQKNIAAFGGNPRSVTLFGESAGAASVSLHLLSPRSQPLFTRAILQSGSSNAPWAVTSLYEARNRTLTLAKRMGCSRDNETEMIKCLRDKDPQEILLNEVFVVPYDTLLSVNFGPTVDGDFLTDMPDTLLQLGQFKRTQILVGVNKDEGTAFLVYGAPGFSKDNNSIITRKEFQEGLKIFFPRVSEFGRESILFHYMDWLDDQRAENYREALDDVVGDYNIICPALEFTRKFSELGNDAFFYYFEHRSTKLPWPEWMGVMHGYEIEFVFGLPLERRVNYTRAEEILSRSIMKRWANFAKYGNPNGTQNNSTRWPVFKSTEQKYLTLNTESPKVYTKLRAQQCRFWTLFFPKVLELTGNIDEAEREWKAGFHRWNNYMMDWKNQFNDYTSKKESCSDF
Sequence of AChE (O42275 24-633): as the sequence (O42275 24-633) above

NCCC(=O)N(CC(=O)NC(Cc1ccccc1)C(=O)O)Cc1ccccc1 (stereo not shown) [7b, 9-Amino-2,6-dibenzyl-4,7-dioxo-3,6-diazanonanoic acid] (H-[βAla]-[Nphe]-[ξF]-OH)
IC50 [1]: 461 ± 6.2 µM
IC50 [2]: 41.3 ± 2.3 µM
Selectivity [2]: 11.17

O=C(O)CCC(=O)N(CC(=O)NC(Cc1ccccc1)C(=O)O)Cc1ccccc1 (stereo not shown) [6e, 2,6-Dibenzyl-4,7-dioxo-3,6-diazadecanedioic acid] (Suc-[Nphe]-[ξF]-OH)
IC50 [1]: 135 µM and 136 µM
IC50 [2]: 305 ± 5.7 µM
Selectivity [2]: 0.45

O=C(O)CCCN(CC(=O)NC(Cc1ccccc1)C(=O)O)C(=O)c1ccccc1 (stereo not shown) [6d]
IC50 [1]: 302 ± 5.8 µM
IC50 [2]: 10.6 ± 1.5 µM
Selectivity [2]: 28.36

NCCCCC(=O)N(CC(=O)NC(Cc1ccccc1)C(=O)O)Cc1ccccc1 (stereo not shown) [7c, 11-Amino-2,6-dibenzyl-4,7-dioxo-3,6-diazaundecanoic acid] (H-[Ava]-[Nphe]-[ξF]-OH)
IC50 [1]: 636.7 ± 3.7 µM
IC50 [2]: 12.6 ± 1.6 µM
Selectivity [2]: 50.69

NCCCC(=O)N(CC(=O)NC(Cc1ccccc1)C(=O)O)Cc1ccccc1 (stereo not shown) [7a, 10-Amino-2,6-dibenzyl-4,7-dioxo-3,6-diazadecanoic acid] (H-[GABA]-[Nphe]-[ξF]-OH)
kinetic mode of AChE inhibition [3]: mixed-type inhibition
IC50 [1]: 244 ± 4.6 µM
IC50 [2]: 3.67 ± 0.8 µM
Selectivity [2]: 66.44
